Experimental data from publication PMC5805504 (Oncotarget, 2017).
Where “and” joins values, the source holds several entries; their conditions need not be identical. Equal values may be shown once.

Columns and labels:
[1] = clinical; cited from earlier work
pSMAD in human PBMCs = test system: pSMAD in human PBMCs; design: method as in PMID 17453744; settings: cited from earlier work
BMPR2 = target: T1, BMPR2 (Homo sapiens, UniProt Q13873); assay: KINOMEscan kinase competition binding assay (DiscoverX); settings: absence of ATP, three-point titration
T1 construct: purchased DiscoverX
T1 sequence (Q13873 27-1038): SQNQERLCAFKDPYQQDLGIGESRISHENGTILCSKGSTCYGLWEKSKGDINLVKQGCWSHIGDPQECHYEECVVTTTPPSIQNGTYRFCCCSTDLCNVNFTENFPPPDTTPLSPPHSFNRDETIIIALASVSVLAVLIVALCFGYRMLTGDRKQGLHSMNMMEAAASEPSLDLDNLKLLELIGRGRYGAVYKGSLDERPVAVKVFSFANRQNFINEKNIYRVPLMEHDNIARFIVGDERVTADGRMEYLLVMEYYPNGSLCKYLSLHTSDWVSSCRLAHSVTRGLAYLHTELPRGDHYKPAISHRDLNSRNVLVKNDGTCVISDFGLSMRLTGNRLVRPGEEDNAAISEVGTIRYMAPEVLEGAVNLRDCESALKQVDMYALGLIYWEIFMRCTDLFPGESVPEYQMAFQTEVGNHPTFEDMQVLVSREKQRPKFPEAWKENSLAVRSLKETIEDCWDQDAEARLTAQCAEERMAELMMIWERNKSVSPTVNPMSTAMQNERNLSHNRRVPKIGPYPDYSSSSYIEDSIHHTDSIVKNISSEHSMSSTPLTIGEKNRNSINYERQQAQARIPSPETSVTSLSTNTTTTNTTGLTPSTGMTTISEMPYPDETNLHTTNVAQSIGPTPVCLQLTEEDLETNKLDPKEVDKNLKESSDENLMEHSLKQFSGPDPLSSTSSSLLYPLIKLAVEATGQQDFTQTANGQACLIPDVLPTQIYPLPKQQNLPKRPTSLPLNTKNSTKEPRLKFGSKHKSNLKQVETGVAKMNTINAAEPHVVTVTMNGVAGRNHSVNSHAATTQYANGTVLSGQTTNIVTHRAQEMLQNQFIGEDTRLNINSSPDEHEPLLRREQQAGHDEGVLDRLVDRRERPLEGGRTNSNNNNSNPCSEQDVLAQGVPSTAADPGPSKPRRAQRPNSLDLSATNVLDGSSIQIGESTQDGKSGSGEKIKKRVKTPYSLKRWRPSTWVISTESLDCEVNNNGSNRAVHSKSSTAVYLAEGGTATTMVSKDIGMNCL
Source text: (§1) Data are presented as Geomean ± SD.

CSNK1E1 = target: T2, CSNK1E1 (Homo sapiens, UniProt P49674); assay: as above; settings: absence of ATP, three-point titration
T2 construct: purchased DiscoverX
T2 sequence (P49674 whole entry): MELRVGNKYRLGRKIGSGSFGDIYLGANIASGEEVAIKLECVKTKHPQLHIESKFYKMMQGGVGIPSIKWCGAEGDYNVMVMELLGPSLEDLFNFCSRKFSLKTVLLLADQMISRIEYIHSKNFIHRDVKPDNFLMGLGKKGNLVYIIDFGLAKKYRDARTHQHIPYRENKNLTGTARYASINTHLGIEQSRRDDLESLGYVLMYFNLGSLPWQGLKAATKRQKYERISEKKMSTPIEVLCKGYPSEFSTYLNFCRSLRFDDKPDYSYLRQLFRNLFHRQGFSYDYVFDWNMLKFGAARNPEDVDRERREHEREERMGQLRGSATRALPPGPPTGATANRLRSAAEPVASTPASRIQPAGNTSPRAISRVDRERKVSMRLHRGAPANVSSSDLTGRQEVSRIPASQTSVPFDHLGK
Source text: as §1

RSK4 = RSK4 (Homo sapiens, UniProt Q9UK32); assay: as above; settings: absence of ATP, three-point titration
RSK4, sequence (Q9UK32 73-330): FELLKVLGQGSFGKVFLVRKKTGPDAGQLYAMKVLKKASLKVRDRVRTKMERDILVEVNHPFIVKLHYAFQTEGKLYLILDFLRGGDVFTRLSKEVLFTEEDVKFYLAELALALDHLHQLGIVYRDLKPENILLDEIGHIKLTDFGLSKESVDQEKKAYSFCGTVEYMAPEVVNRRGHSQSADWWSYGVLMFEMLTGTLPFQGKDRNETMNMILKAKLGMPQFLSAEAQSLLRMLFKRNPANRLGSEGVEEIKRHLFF
Source text: as §1

MINK = target: T3, MINK (Homo sapiens, UniProt Q8N4C8); assay: as above; settings: absence of ATP, three-point titration
T3 construct: purchased DiscoverX
T3 sequence (Q8N4C8 whole entry): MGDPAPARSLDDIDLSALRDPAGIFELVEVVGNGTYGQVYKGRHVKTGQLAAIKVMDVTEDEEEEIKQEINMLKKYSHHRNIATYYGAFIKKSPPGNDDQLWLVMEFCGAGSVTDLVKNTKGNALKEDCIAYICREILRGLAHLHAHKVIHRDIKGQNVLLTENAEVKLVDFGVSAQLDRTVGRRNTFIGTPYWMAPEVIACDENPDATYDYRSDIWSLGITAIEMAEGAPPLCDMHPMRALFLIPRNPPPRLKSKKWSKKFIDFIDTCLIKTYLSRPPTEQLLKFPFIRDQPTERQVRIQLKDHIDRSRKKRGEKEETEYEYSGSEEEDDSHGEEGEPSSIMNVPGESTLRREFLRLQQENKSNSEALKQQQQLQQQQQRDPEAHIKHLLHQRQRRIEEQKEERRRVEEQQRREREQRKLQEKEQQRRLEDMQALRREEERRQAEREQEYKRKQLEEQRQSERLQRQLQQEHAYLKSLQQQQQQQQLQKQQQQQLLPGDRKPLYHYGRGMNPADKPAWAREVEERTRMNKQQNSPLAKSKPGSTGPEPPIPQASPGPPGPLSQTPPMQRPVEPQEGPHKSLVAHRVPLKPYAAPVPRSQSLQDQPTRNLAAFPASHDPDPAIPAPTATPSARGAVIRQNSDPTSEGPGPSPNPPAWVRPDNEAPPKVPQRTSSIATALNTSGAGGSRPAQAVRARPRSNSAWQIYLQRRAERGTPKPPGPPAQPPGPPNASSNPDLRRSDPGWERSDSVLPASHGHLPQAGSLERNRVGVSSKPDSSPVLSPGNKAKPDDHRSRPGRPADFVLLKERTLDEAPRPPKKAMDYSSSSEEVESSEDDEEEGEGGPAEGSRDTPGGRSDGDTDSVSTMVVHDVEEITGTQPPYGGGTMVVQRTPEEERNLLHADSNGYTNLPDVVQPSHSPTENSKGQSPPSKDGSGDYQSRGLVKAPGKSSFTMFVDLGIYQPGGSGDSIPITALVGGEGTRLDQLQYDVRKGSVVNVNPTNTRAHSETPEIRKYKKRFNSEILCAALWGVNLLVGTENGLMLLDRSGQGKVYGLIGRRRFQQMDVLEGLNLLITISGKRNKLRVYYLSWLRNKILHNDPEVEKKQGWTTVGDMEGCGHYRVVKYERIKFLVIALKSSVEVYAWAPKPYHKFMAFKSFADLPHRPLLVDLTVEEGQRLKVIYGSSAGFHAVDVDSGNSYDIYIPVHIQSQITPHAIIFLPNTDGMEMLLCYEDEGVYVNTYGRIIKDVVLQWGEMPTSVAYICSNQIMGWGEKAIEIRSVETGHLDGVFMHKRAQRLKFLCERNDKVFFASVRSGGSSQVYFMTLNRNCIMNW
Source text: as §1

TGFβR2 = target: T4, TGFβR2 (Homo sapiens, UniProt P37173); assay: as above; settings: absence of ATP, three-point titration
T4 construct: purchased DiscoverX
T4 sequence (P37173 23-567): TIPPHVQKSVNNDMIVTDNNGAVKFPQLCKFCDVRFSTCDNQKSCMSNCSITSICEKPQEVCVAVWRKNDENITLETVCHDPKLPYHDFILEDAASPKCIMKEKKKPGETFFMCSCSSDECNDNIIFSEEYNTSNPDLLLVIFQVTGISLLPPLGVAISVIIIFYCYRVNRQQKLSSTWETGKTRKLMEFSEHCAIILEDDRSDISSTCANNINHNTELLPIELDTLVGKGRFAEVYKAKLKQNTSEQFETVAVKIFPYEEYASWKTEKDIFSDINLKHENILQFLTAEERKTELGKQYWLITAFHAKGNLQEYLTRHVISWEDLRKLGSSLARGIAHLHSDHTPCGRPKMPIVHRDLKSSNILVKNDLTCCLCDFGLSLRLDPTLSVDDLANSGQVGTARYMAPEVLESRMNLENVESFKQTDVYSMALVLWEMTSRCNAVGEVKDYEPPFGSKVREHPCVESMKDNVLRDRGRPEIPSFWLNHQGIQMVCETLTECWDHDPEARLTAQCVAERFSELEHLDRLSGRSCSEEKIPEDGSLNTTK
Source text: as §1

Alk4/ACVR1B = target: T5, Alk4/ACVR1B (Homo sapiens, UniProt P36896); assay: as above; settings: absence of ATP, three-point titration
T5 construct: purchased DiscoverX
T5 sequence (P36896 24-505): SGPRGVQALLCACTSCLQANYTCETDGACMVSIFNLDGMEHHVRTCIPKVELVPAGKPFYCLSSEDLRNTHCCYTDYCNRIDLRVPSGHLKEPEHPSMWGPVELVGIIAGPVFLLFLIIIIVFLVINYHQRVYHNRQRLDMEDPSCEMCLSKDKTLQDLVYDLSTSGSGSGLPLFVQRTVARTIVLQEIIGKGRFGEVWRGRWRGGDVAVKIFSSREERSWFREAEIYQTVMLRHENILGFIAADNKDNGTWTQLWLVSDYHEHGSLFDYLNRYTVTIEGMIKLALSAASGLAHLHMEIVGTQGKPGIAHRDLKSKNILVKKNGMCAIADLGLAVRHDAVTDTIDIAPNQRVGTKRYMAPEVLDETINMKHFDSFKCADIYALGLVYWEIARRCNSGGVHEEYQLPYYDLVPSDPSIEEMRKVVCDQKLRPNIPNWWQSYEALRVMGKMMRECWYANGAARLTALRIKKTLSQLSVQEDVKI
Source text: as §1

ACVR2B = target: T6, ACVR2B (Homo sapiens, UniProt Q13705); assay: as above; settings: absence of ATP, three-point titration
T6 construct: purchased DiscoverX
T6 sequence (Q13705 19-512): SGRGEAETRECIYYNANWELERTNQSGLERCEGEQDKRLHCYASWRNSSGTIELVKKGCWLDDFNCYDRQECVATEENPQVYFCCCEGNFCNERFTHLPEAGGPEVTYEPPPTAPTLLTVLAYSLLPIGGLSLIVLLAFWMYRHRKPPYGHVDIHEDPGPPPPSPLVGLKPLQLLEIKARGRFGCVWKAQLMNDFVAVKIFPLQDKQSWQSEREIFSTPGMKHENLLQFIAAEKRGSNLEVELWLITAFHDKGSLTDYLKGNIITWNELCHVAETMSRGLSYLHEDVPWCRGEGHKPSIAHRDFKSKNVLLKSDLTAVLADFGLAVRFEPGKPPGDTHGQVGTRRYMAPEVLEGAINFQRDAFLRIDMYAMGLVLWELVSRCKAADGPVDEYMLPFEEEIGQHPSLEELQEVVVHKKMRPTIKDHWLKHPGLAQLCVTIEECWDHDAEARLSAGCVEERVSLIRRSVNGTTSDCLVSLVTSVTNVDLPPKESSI
Source text: as §1

Alk3/BMPR1A = target: T7, Alk3/BMPR1A (Homo sapiens, UniProt P36894); assay: as above; settings: absence of ATP, three-point titration
T7 construct: purchased DiscoverX
Source text: as §1

Alk6/BMPR1 = target: T8, Alk6/BMPR1 (Homo sapiens, UniProt O00238); assay: as above; settings: absence of ATP, three-point titration
T8 construct: purchased DiscoverX
T8 sequence (O00238 14-502): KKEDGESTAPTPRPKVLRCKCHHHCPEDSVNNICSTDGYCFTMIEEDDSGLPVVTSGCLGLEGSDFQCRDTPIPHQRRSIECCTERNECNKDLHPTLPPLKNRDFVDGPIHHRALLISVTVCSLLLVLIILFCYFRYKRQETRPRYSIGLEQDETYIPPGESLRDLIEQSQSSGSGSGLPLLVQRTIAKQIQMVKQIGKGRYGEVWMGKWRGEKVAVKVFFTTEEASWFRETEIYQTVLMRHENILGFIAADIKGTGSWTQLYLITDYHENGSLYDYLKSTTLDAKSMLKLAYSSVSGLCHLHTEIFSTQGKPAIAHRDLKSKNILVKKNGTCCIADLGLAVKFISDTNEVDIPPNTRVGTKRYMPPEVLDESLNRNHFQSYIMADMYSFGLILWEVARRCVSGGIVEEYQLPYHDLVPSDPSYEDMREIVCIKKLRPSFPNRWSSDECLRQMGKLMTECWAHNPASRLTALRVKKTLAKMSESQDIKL
Source text: as §1

ACVR2A = target: T9, ACVR2A (Homo sapiens, UniProt P27037); assay: as above; settings: absence of ATP, three-point titration
T9 construct: purchased DiscoverX
Source text: as §1

TNIK = target: T10, TNIK (Homo sapiens, UniProt Q9UKE5); assay: as above; settings: absence of ATP, three-point titration
T10 construct: purchased DiscoverX
Source text: as §1

Alk2/ACVR1 = target: T11, Alk2/ACVR1 (Homo sapiens, UniProt Q04771); assay: as above; settings: absence of ATP, three-point titration
T11 construct: purchased DiscoverX
Source text: as §1

[2] = test system: murine NK and CD8+ T cells; assay: TGFβ suppression of murine NK and CD8+ T cell cytokine secretion; type: cell-based, BALB/c mice; settings: TGFβ1 10 ng/ml, 0.1 μM to 10 μM, ELISA
Procedure: Mouse NK cells and CD8^+ T cells were purified from female BALB/C mouse splenocytes by magnetic antibody sorting (Miltenyi Biotec) following the manufacturer's instructions. After isolation, the cells were re-suspended separately in complete media (RPMI1640, 5% FBS, 10 mM HEPES, 1×NEAA, 1×L-Glu, sodium pyruvate, 1×Penn/Strep, 0.055 mM βME, 50 U/ml IL2) and plated in flat 96-well plates at 37°C for 5-7 days at a density of 5 × 10^4/well, in triplicate, and stimulated with Treg Suppression Inspector beads (Miltenyi Biotec, Cat# 130-093-627). Cells were cultured with or without TGFβ1 at 10 ng/ml. […] Cytokine release in supernatants was measured by ELISA (R&D, mouse Granzyme B: DY1865; mouse INFγ:3321-1H-6). One-way ANOVA with Dunnett's test was used to compare the TGFβ+Gal treatments to the TGFβ+DMSO treatment.

[3] = test system: MX1 human xenograft breast cancer model; assay: MX1 in vivo xenograft cancer model; design: species or system athymic nude mice
Procedure: Female athymic nude mice from Charles River weighing 22 to 26 grams were implanted subcutaneously in the flank with 1×10^7 cells in a 1:1 (v/v) mixture in matrigel. […] Tumor volumes and body weight were determined by electronic caliper every 2 to 3 days. Repeat measures analysis was utilized with log transformed data and the auto-regression (AR) method to determine the overall p-value for galunisertib growth curves relative to the vehicle control in both tumor models. […]

[4] = rats; cited from earlier work
[5] = test system: 4T1 syngenic murine breast cancer model; assay: 4T1 in vivo syngenic breast cancer model; design: species or system BALB/c mice
Procedure: Female BALB/c mice from Taconic Farms weighing 20 to 24 grams were acclimated for 1 week prior to study initiation, had ad libitum access to food and were shaved in the implant area prior to the orthotopic injection of 1 × 10^5 4T1 cells into the mammary fat pad in a volume of 20 μL media. Ten animals per group were utilized for tumor measurement and survival endpoints. […] Tumor volumes were determined by electronic caliper every 2 to 3 days. Statistical analysis was performed by repeated measures analysis and Kaplan-Meier analysis.

[6] = test system: human NK and CD8+ T cells; assay: TGFβ1 suppression of human NK and CD8+ T cell cytokine secretion; type: cell-based; settings: TGFβ1 10 ng/ml, ELISA
Procedure: Blood from healthy donors were obtained from the New York Blood Center. After isolation of PBMCs via high density gradient centrifugation with Ficoll-Paque, NK cells and CD8^+ T cells were purified from PBMCs by magnetic antibody sorting (Miltenyi Biotec) following the manufacturer's instructions. Purified CD8^+ T cells and NK cells were re-suspended separately in complete media (RPMI1640, 5% FBS, 10mM HEPES, 1×NEAA, 1×L-glu, sodium pyruvate, 1×penn/strep, 0.055 mM βME, 50 U/ml IL-2) and plated in 96-well plates at 37°C for 2 days at a density of 5 × 10^4/well, in triplicates. CD8^+ T cells were stimulated with human T cell activation/expansion beads (Miltenyi Biotec; 130-091-441), while NK cells were stimulated with the same beads plus 10 U/ml IL-2. Cells were cultured with or without TGFβ1 at 10 ng/ml. […] Cytokine release in supernatants was measured by ELISA (R&D; human Granzyme B: DY2906; human INFγ: DY285-05). One-way ANOVA with Dunnett's test was used to compare the TGFβ+Gal treatments to the TGFβ+DMSO treatment.

[7] = test system: BMP ligand (SMAD1/5/8-responsive promoter); assay: Cell based luciferase reporter assay (SMAD1/5/8), BMP4-stimulated HEK293_SMAD1/5/8 cells; settings: Homo sapiens; BMP4 20 nM stimulated HEK293_SMAD1/5/8
[8] = test system: pSMAD in Calu6 and EMT6-LM2 tumors; assay: PK/PD profile from Calu6 and EMT6-LM2 in vivo target inhibition studies (statements not split by model); design: species or system mice
[9] = 75 mg/kg twice daily, data not shown

Procedure for pSMAD in Calu6 tumors: For in vivo measurement of tumor cell pSMAD activity, tumors were harvested from mice at the indicated time points post-treatment, snap frozen in liquid nitrogen, then pulverized in lysis buffer [EDTA 5 mM, EGTA 5 mM, sodium pyrophosphate 30 mM, sodium chloride 6.7 mM, sodium fluoride 50 mM, and 1% triton in water, pH 7.4 with protease and phosphatase inhibitors (Sigma, p8340, p5726, p0044) and sodium orthovanadate 2.5 mM]. Protein concentration was estimated with DC protein assay kit (BioRad).
Percent inhibition of normalized pSMAD2 levels was calculated by first determining the ratio of tSMAD to pSMAD values for the vehicle group. […] Percent inhibition for compound treated groups was determined relative to the minimum pSMAD inhibition of the vehicle group using the formula: [(100- (normalized pSMAD in the experimental treatment group/normalized pSMAD in the vehicle treated group)]. IC50 of pSMAD inhibition was calculated for the data using non-linear regression to fit the standard four parameter logistic model using GraphPad Prism 6.
Female athymic nu/nu mice or immune competent syngenic BALB/c mice (Charles River or Taconic Farms, respectively, 22 to 28 grams) were maintained in microisolator cages, received food and water ad libitum, and were quarantined for 1 week before experimental manipulation. Sub-confluent Calu6 human non-small cell lung cancer (NSCLC) cells were injected subcutaneously in the flank of nude mice (1x 10^7cells/per animal) in 0.2 mL of culture medium mixed with Matrigel (BD Biosciences, 1:1 v/v). EMT6-LM2 murine triple negative breast cancer tumor cells (5 × 10^5 cells/per animal in the absence of matrigel) were implanted on the flank of BALB/c mice. EMT6-LM2 cells were generated from parental EMT6 cells which were passaged twice from spontaneous lung metastases (LM) following subcutaneous growth. When the tumor volume reached ~250 mm^3, mice were randomized and separated into treatment groups.
Tumors and plasma were collected 2 hours post dosage for analysis of pSMAD and compound levels.
Tumors and plasma were collected at the indicated time points (0.5, 1, 1.5, 2, 4, 8, and 16 hours) for analysis of pSMAD and compound levels.
Percent target inhibition was calculated as described above then was modeled as a function of either dose or plasma concentration.

Cc1cccc(-c2nn3c(c2-c2ccnc4ccc(C(N)=O)cc24)CCC3)n1.O [galunisertib, 4-[2-(6-methylpyridin-2-yl)-5,6-dihydro-4H-pyrrolo[1,2-b]pyrazol-3-yl]quinoline-6-carboxamide monohydrate]
tolerability as oral cancer therapy [1]: well-tolerated
pSMAD in human PBMCs ex vivo (pSMAD in human PBMCs): inhibit pSMAD
IC50 (BMPR2): > 60000 nM
IC50 (CSNK1E1): 400 nM
IC50 (RSK4): 720 nM
IC50 (MINK): 190 nM
IC50 (TGFβR2): 210 nM
IC50 (TGFβR2; listed as Galunisertib): 208 nM
IC50 (Alk4/ACVR1B): 80 nM
IC50 (Alk4/ACVR1B; listed as Galunisertib): 77.7 nM
IC50 (ACVR2B): 690 nM and 694 nM
IC50 (Alk3/BMPR1A): 16800 nM
IC50 (Alk6/BMPR1): 470 nM
IC50 (Alk6/BMPR1; listed as Galunisertib): 471 nM
IC50 (ACVR2A): > 20000 nM
IC50 (TNIK): 510 nM
IC50 (Alk2/ACVR1): > 20000 nM
TGFβ1 suppression of IFNγ and granzyme B secretion [2]: prevented the suppression of IFNγ and granzyme B secretion
tumor growth delay ([3]; 75 mg/kg twice daily oral gavage, 1500 mm^3 crossing time, p = 0.014): 10.3 ± 4.3 days
body weight [3, 9]: No body weight loss
pSMAD inhibition at maximum plasma exposure (pSMAD in Calu6 tumors; Calu6, at 30 minutes): ~ 70%
TED50, total effective dose to inhibit 50% pSMAD (pSMAD in Calu6 tumors; Calu6, single oral dose, tumors 2 hours post dosage): 15.6 mg/kg
maximum plasma exposure (pSMAD in Calu6 tumors; Calu6 time course, single oral dose): up to 6 μM
adverse effects at high doses [4]: associated with adverse effects
tumor growth delay ([5]; 75 mg/kg twice daily oral gavage, 500 mm^3 crossing time, p < 0.01): 13 ± 2.4 days
survival advantage ([5]; 75 mg/kg twice daily, Kaplan-Meier, p = 0.01): 4.5 days
body weight [5, 9]: No body weight loss
TGFβ1 suppression of IFNγ and granzyme B secretion [6]: prevented the suppression of IFNγ and granzyme B secretion
IC50 [7]: > 10000 nM
TED90 ([8]; oral, data not shown): 75 mg/kg
target inhibition in vivo over 12 hours ([8]; single oral dose with an exposure of […]-5 μM): ≥ 20%
